Columns and labels:
[1] = biological target: T1, rat adrenergic α1B receptor (Rattus norvegicus, UniProt P15823); test: Radioligand binding, adrenergic α1B ([3H]Prazosin); conditions: 0.1 μM compound; read-out: Percentage inhibition of ligand binding, Adrenergic α1B
T1 construct: rat adrenergic α1B receptor obtained from Wistar Rat liver; from tissue; host or cells: Wistar rat liver
T1 sequence (P15823 1-515): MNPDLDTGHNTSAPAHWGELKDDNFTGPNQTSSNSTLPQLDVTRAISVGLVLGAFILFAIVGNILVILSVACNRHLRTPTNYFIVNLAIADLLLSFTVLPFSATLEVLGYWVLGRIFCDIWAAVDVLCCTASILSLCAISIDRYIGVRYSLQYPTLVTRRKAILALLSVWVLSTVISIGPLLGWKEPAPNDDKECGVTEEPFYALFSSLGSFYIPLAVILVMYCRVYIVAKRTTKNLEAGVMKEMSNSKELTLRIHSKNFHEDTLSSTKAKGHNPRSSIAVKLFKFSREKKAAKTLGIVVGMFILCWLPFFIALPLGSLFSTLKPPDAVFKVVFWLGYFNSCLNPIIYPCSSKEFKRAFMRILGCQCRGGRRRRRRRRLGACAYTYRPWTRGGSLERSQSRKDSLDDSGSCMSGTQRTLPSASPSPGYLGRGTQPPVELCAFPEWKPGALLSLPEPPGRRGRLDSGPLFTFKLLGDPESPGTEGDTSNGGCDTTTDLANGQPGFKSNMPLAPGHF
Method in brief: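 Incubation ran 60 min at 25 °C in Tris-HCl buffer (50 mM, pH 7.4, 0.5 mM EDTA) with Wistar rat liver α1B receptor. 10 μM phentolamine set non-specific binding.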

[2] = biological target: T2, human recombinant adrenergic α1D receptor (Homo sapiens, UniProt P25100); test: Radioligand binding, adrenergic α1D ([3H]Prazosin); conditions: 0.1 μM compound; read-out: Percentage inhibition of ligand binding, Adrenergic α1D
T2 construct: expressed in transfected cells; host or cells: HEK-293
T2 sequence (P25100 1-572): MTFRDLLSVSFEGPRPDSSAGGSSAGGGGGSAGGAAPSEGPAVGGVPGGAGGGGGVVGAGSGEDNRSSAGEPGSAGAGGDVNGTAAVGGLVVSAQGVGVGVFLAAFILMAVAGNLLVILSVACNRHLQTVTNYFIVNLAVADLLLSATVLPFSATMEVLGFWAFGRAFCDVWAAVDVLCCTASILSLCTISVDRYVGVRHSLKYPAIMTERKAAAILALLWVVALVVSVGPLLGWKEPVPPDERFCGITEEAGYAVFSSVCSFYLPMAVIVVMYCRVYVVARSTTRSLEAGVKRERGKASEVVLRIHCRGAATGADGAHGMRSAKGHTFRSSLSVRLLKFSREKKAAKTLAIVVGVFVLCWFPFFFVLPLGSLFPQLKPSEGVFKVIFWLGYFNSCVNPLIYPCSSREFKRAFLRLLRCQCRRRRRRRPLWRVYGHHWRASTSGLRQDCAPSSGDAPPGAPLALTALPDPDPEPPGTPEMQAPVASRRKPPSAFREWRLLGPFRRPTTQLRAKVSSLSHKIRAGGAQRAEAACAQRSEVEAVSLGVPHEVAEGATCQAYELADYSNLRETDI
Experimental: Compounds were incubated with 0.6 nM [3H]Prazosin for 60 min at 25° C. Non-specific binding was estimated in the presence of 10 μM phentolamine. Receptor proteins were filtered and washed, the filters were then counted to determine [3H]Prazosin specifically bound. […] Biochemical assay results are presented as the percent inhibition of specific binding in Table B1.

[3] = biological target: T3, human recombinant adrenergic α2A receptor (Homo sapiens, UniProt P08913); test: Radioligand binding, adrenergic α2A ([3H]MK-912); conditions: 0.1 μM compound; read-out: Percentage inhibition of ligand binding, Adrenergic α2A
T3 construct: expressed in transfected cells; host or cells: insect Sf9 cells
T3 sequence (P08913 1-465): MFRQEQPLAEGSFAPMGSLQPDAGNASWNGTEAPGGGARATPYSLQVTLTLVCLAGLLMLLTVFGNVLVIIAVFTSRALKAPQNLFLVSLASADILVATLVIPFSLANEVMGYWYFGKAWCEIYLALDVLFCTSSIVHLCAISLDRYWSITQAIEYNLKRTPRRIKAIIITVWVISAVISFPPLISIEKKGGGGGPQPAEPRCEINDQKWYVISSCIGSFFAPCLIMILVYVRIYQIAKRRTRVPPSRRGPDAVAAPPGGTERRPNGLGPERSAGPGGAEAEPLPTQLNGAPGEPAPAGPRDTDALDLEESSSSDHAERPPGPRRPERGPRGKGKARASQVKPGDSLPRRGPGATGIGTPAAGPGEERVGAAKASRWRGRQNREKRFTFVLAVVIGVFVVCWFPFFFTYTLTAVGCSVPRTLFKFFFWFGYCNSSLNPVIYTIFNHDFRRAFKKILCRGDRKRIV
Method in brief: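 In 50 mM Tris-HCl (pH 7.4) containing 12.5 mM MgCl2 and 2 mM EDTA, Sf9-expressed receptor was exposed to test compound plus 1 nM [3H]MK-912 at 25 °C for 60 min. Specific binding, corrected using 10 μM WB-4101, was quantified by filtration and counting and expressed as percent inhibition.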

[4] = biological target: T4, human recombinant adrenergic α2B receptor (Homo sapiens, UniProt P18089); test: Radioligand binding, adrenergic α2B ([3H]Rauwolscine); conditions: 0.1 μM compound; read-out: Percentage inhibition of ligand binding, Adrenergic α2B
T4 construct: expressed in transfected cells; host or cells: CHO-K1
T4 sequence (P18089 1-450): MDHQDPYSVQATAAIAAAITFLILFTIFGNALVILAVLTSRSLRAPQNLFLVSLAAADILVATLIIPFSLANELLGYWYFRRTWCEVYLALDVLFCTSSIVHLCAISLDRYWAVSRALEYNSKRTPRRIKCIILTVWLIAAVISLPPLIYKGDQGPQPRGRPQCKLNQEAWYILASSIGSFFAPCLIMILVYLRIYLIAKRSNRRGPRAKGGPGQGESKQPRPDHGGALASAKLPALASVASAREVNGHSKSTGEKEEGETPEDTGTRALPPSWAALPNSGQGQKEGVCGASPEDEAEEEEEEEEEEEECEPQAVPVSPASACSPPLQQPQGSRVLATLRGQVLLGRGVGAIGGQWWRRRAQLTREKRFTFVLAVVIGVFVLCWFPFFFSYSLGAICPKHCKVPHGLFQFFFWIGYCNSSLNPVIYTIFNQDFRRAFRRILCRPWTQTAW
Method in brief: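 Assay used CHO-K1-expressed human α2B receptor in Tris-HCl pH 7.4 buffer with MgCl2, EDTA and BSA; 60 min incubation at 25 °C.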

SMILES	inhibition at 0.1 µM [1]	inhibition at 0.1 µM [2]	inhibition at 0.1 µM [3]	inhibition at 0.1 µM [4]
C/C(=C/n1c2c(c3cc(C)ccc31)CN(C)CC2)c1cc(C)cs1 [compound 291]	88%	85%	102%	105%
C/C(=C\n1c2c(c3cc(C)ccc31)CN(C)CC2)c1cncc2ccccc12 [compound 292]	13%	23%	58%	104%
C/C(=C/n1c2c(c3cc(C)ccc31)CN(C)CC2)c1cc2ccccc2s1 [compound 293]	73%	82%	96%	93%
Cc1ccc2c(c1)c1c(n2CCc2csc3ccccc23)CCN(C)C1 [compound 294, 5-(2-benzo[b]thiophen-3-yl-ethyl)-2,8-dimethyl-2,3,4,5-tetrahydro-1H-pyrido[4,3-b]indole]	76%	39%	94%	41%
CSc1cccc(/C(C)=C/n2c3c(c4cc(Cl)ccc42)CN(C)CC3)c1 [compound 295]	15%	7%	69%	79%
C/C(=C\n1c2c(c3cc(Cl)ccc31)CN(C)CC2)c1cccc(S(C)(=O)=O)c1 [compound 296]	20%	33%	60%	70%
Cc1ccc2c(c1)c1c(n2CCc2cccc(C)n2)CCN(C)C1 [compound 297, 2,8-dimethyl-5-[2-(6-methyl-pyridin-2-yl)-ethyl]-2,3,4,5-tetrahydro-1H-pyrido[4,3-b]indole]	69%	36%	50%	46%
Cc1ccc2c(c1)c1c(n2CCc2cccc(N(C)C)c2)CCN(C)C1 [compound 298, {3-[2-(2,8-dimethyl-1,2,3,4-tetrahydro-pyrido[4,3-b]indol-5-yl)-ethyl]-phenyl}-dimethyl-amine]	60%	17%	54%	51%
Cc1ccc(CCn2c3c(c4cc(C)ccc42)CN(C)CC3)nc1 [compound 299, 2,8-dimethyl-5-[2-(5-methyl-pyridin-2-yl)-ethyl]-2,3,4,5-tetrahydro-1H-pyrido[4,3-b]indole]	78%	47%	52%	54%
Cc1ccc2c(c1)c1c(n2C2=C(c3cccnc3)CCC2)CCN(C)C1 [compound 300, 2,8-dimethyl-5-(2-(pyridin-3-yl)cyclopent-1-enyl)-2,3,4,5-tetrahydro-1H-pyrido[4,3-b]indole]	14%	29%	67%	86%
Cc1ccc2c(c1)c1c(n2C2=C(c3ccc(F)cc3)CCC2)CCN(C)C1 [compound 301, 5-(2-(4-fluorophenyl)cyclopent-1-enyl)-2,8-dimethyl-2,3,4,5-tetrahydro-1H-pyrido[4,3-b]indole]	29%	36%	87%	84%
Cc1ccc2c(c1)c1c(n2C2=C(c3sccc3C)CCC2)CCN(C)C1 [compound 302, 2,8-dimethyl-5-(2-(3-methylthiophen-2-yl)cyclopent-1-enyl)-2,3,4,5-tetrahydro-1H-pyrido[4,3-b]indole]	23%	17%	81%	35%
Cc1ccc2c(c1)c1c(n2C2=C(c3cnc(N(C)C)nc3)CCC2)CCN(C)C1 [compound 303, 5-(2-(2,8-dimethyl-3,4-dihydro-1H-pyrido[4,3-b]indol-5(2H)-yl)cyclopent-1-enyl)-N,N-dimethylpyrimidin-2-amine]	16%	51%	62%	71%
Cc1csc(C2=C(n3c4c(c5cc(C)ccc53)CN(C)CC4)CCC2)c1 [compound 304, 2,8-dimethyl-5-(2-(4-methylthiophen-2-yl)cyclopent-1-enyl)-2,3,4,5-tetrahydro-1H-pyrido[4,3-b]indole]	15%	27%	79%	81%
Cc1ccc2c(c1)c1c(n2C2=C(c3cc4ccccc4s3)CCC2)CCN(C)C1 [compound 305, 5-(2-(benzo[b]thiophen-2-yl)cyclopent-1-enyl)-2,8-dimethyl-2,3,4,5-tetrahydro-1H-pyrido[4,3-b]indole]	20%	41%	93%	79%
Cc1ccc2c(c1)c1c(n2C2=C(c3cccc4ccccc34)CCC2)CCN(C)C1 [compound 306, 2,8-dimethyl-5-(2-(naphthalen-1-yl)cyclopent-1-enyl)-2,3,4,5-tetrahydro-1H-pyrido[4,3-b]indole]	18%	12%	78%	14%
Cc1ccc2c(c1)c1c(n2C2=C(c3ccnn3C)CCC2)CCN(C)C1 [compound 309, 2,8-dimethyl-5-(2-(1-methyl-1H-pyrazol-5-yl)cyclopent-1-enyl)-2,3,4,5-tetrahydro-1H-pyrido[4,3-b]indole]	23%	40%	57%	37%
C/C(=C\n1c2c(c3cc(C)cc(C)c31)CN(C)CC2)c1cccc(S(C)(=O)=O)c1 [compound 310]	63%	47%	69%	87%

Source: patent publication US8791132B2, “Compounds and methods for treatment of hypertension” (Medivation Technologies, Inc., priority 2011, dated 2014)
